# In ChEMBL document CHEMBL1128122, “Synthesis of 1,25-dihydroxy-22-thiavitamin D3 and related analogs” (1995):
# Tested on: HL-60
# Experiment: In vitro differentiation-inducing activity of human myeloid leukemia cells (HL-60) into macrophages; compound showed potent activity
# Type: functional, cell-based
structure (smiles),measurement,value
C=C1/C(=C\C=C2/CCC[C@@]3(C)C2CCC3[C@@H](C)SCCC(O)(CC)CC)C[C@@H](O)C[C@@H]1O (stereo partly specified),Activity,compound showed potent activity
